# Measured values reported in US11149062B2, “HDAC inhibitors and methods of treatment using the same” (UWM Research Foundation, Inc., priority 2015, dated 2021).
# Tests used:
# Assay type in all cases: cell-based
# [1] = system: MDA-MB-231 (breast cancer); test: MTT antiproliferative assay, MDA-MB-231; details: Homo sapiens, MDA-MB-231; MTT, 48 h; read-out: Antiproliferative Activity GI50, Breast MDA-MB-231
# Protocol: (§1) Briefly, the tumor cells (1×10^4 cells/well) were seeded in 96-well microtiter plates and incubated for 24 h at 37° C. Following incubation, the media was replaced with fresh media containing the above compounds at concentrations ranging from 1 μM to 1 pM diluted in DMSO and incubated for an additional 48 h. Drugs were run in duplicate or triplicate and control cells received fresh media with DMSO concentration equivalent to the treatment groups. […] After aspirating the culture medium, 200 μL of DMSO was added to dissolve the precipitate and the resulting solution was measured for absorbance at 570 nm with a reference wavelength of 690 nm using a microplate reader (Infinite M200 Pro TECAN).
# COLO-205 (colon cancer) = test: MTT antiproliferative assay, COLO-205; details: Homo sapiens, COLO 205; MTT, 48 h; read-out: Antiproliferative Activity GI50, Colon COLO-205
# Protocol: as §1
# SKOV-3 (ovarian) = test: MTT antiproliferative assay, SKOV-3; details: Homo sapiens, SK-OV-3; MTT, 48 h; read-out: Antiproliferative Activity GI50, Ovarian SKOV-3
# Protocol: as §1
# DU-145 (prostate cancer) = test: MTT antiproliferative assay, DU-145; details: Homo sapiens, DU-145; MTT, 48 h; read-out: Antiproliferative Activity GI50, Prostate DU-145
# Protocol: as §1
compound,measurement,setting,value
"COC(=O)[C@H]1CSSCC/C=C/C(O)CC(=O)N[C@H](CCSC)C(=O)N1 (stereo partly drawn) [TDF3m, Methyl (4S,7R,12E)-11-hydroxy-7-[2-(methylsulfanyl)ethyl]-6,9-dioxo-1,2-dithia-5,8-diazacyclopentadec-12-ene-4-carboxylate]",GI50,[1],600 nM
same,GI50,COLO-205 (colon cancer),900 nM
same,GI50,SKOV-3 (ovarian),500 nM
same,GI50,DU-145 (prostate cancer),300 nM
